In US20080306096A1, “Quinazoline Derivatives, Process for Their Preparation and Their Use as Anti-Cancer Agents” (ASTRAZENECA AB, priority 2005, published 2008) one finds IC50 data, which are given here for three compounds.

For orientation: IC50 means the concentration that gives 50% inhibition.

The target of the assay is T1, human recombinant, purified wild type His-B-Raf protein kinase (Homo sapiens, UniProt P15056).
T1 construct: His
Nature of the assay: B-Raf In Vitro ELISA Assay. In kind it is biochemical. As to conditions: phosphorylation of MEK1; 2.5 nM B-Raf, 0.15 μM MEK1, 10 μM ATP; 1 hour preincubation at 25° C. As for the experimental part: B-Raf In Vitro ELISA Assay
Activity of human recombinant, purified wild type His-B-Raf protein kinase was determined in vitro using an enzyme-linked immunosorbent assay (ELISA) assay format, which measures phosphorylation of the B-Raf substrate, human recombinant, purified His-derived (detagged) MEK1. The reaction utilized 2.5 nM B-Raf, 0.15 μM MEK1 and 10 μM adenosine triphosphate (ATP) in 40 mM N-(2-hydroxyethyl)piperazine-N′-(2-ethanesulfonic acid hemisodium salt (HEPES), 5 mM 1,4-dithio-DL-threitol (DTT), 10 mM MgCl2, 1 mM ethylenediaminetetraacetic acid (EDTA) and 0.2 M NaCl (1×HEPES buffer), with or without compound at various concentrations, in a total reaction volume of 25 μl in 384 well plates. B-Raf and compound were preincubated in 1×HEPES buffer for 1 hour at 25° C. Reactions were initiated with addition of MEK1 and ATP in 1×HEPES buffer and incubated at 25° C. for 50 minutes and reactions stopped by addition of 10 μl 175 mM EDTA (final concentration 50 mM) in 1×HEPES buffer. 5 μl of the assay mix was then diluted 1:20 into 50 mM EDTA in 1×HEPES buffer, transferred to 384 well black high protein binding plates and incubated overnight at 4° C. Plates were washed in tris buffered saline containing 0.1% 5 Tween20 (TBST), blocked with 50 μl Superblock (Pierce) for 1 hour at 25° C., washed in TBST, incubated with 50 μl rabbit polyclonal anti-phospho-MEK antibody (Cell Signaling) diluted 1:1000 in TBS for 2 hours at 25° C., washed with TBST, incubated with 50 μl goat anti-rabbit horseradish peroxidase-linked antibody (Cell Signaling) diluted 1:2000 in TBS for 1 hour at 25° C. and washed with TBST. 50 μl of fluorogenic peroxidase substrate (Quantablu 10-Pierce) was added and following incubation for 45-60 minutes, 50 μl QuantabluSTOP (Pierce) was added. Blue fluorescent product was detected at excitation 325 and emission 420 using a TECAN Ultra plate reader. Data was graphed and IC50s calculated using Excel Fit (Microsoft).
A general note: In an ELISA, binding on a coated surface is turned into a signal by an enzyme label.

T1 sequence (P15056 whole entry): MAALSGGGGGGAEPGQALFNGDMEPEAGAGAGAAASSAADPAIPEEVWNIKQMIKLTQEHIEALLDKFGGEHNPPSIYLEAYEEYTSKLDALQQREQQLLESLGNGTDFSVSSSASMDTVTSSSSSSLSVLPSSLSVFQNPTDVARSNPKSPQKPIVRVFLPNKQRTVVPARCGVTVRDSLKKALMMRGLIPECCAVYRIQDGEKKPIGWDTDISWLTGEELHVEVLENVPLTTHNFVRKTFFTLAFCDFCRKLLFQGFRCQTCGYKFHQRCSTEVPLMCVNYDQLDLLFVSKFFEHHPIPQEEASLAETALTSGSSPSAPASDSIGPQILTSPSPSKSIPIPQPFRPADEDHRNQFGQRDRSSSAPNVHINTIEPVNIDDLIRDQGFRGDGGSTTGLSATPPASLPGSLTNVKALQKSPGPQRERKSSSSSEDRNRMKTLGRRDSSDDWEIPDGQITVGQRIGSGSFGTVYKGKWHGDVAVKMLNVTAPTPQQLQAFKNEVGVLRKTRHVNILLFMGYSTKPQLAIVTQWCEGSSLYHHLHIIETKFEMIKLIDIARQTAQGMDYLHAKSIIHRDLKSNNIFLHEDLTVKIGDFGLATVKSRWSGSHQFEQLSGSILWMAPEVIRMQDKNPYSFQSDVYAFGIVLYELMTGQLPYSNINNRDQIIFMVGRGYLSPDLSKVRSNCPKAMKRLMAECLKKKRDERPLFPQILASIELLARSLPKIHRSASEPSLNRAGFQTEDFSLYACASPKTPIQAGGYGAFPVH

Turning to `COc1cc2ncnc(Nc3cc(NC(=O)c4cc(C(F)(F)F)ccc4F)ccc3C)c2cc1OC` [Example 15, N-{3-[(6,7-Dimethoxyquinazolin-4-yl)amino]-4-methylphenyl}-2-fluoro-5-(trifluoromethyl)benzamide], the IC50 turned out to be 370 nM.
On to `COc1cc2ncnc(Nc3cc(NC(=O)c4cccc(C5(C#N)CCC5)c4)ccc3C)c2cc1OC` [Example 7, 3-(1-Cyanocyclobutyl)-N-{3-[(6,7-dimethoxyquinazolin-4-yl)amino]-4-methylphenyl}benzamide], for which the half-inhibitory concentration (IC50) is 193 nM.
The result for `COc1cc2c(Nc3cc(NC(=O)c4cccc(C(C)(C)C#N)c4)ccc3C)ncnc2cc1OCc1ccccc1` [Example 5, N-(3-{[7-(Benzyloxy)-6-methoxyquinazolin-4-yl]amino}-4-methylphenyl)-3-(1-cyano-1-methylethyl)benzamide] reads 1100 nM.
